Assay [1] in a line: Murine model of lethal endotoxemia. It is filed as in vivo, mice. To be noted: at 7 days; 5 mg/kg i.p. 20 min before Actinomycin D 800 μg/Kg plus LPS 5 μg/Kg; three experiments combined. As to the method:
FIG. 13. Efficacy of synthetic peptide BP2 on survival in a murine model of lethal endotoxemia. Outbred femal Swiss-Webster mice of 7 to 8 weeks, weighing 28 to 30 g were treated with BP2 peptide by intraperitoneal (i.p) administration of a dose of 5 mg/Kg in pyrogen-free saline. Twenty minutes later the mice were challenged by i.p administration of the sensitizing agent Actinomycin D at 800 μg/Kg plus lethal concentrations of purified E. coli 0111:B4 LPS at 5 or 11 μg/Kg. Control groups only received Actinomycin D plus LPS. Survival was recorded at 24 h intervals during a 7 day period of observation. The indicated values are the combined results of three independent experiments.
The efficacy of the peptides of the invention in the protection of experimental animals against the toxic effects of LPS or live pathogenic bacteria was investigated with the use of murine models of lethal endotoxemia and peritonitis Laboratory mice, which are normally tolerant to high doses of endotoxin and require a lethal dose (LD100) of approximately 1 mg, may be sensitized with Actinomycin D to 10,000×lower amounts of endotoxin for lethality. […] The survival of the treated animals was recorded at 24 h intervals during a seven day period of observation and compared with the control groups. […]

Assay [2] concerns Escherichia coli strain 018:K1:H7 Bort. Nature of the assay: Murine model of lethal peritonitis. It is filed as in vivo, mice. To be noted: at 7 days; 100 μg/mouse (4 mg/kg) 1 h after 10^4 CFU i.p.; two experiments combined. On the procedure:
FIG. 14. Efficacy of synthetic peptide BP2 on survival in a murine model of lethal peritonitis. Outbred female Swiss-Webster mice of 7 to 8 weeks, weighing 28 to 30 g were administered a predetermined lethal dose of 104 colony forming units (CFU) of the pathogenic strain of live E. coli […] Bort organisms by intraperitoneal (i.p.) administration in 0.5 ml pyrogen-free saline. After a delay of 1 h after infection, treated groups of mice received synthetic BP2 peptide in p.f saline at a dosage of 100 μg/mouse (approximately 4 mg/kg) and negative control groups only saline. Survival was recorded at 12 or 24 h intervals during a 7 day period of observation. […]
The efficacy of the peptides of the invention in the protection of experimental animals against the toxic effects of LPS or live pathogenic bacteria was investigated with the use of murine models of lethal endotoxemia and peritonitis Laboratory mice, which are normally tolerant to high doses of endotoxin and require a lethal dose (LD100) of approximately 1 mg, may be sensitized with Actinomycin D to 10,000×lower amounts of endotoxin for lethality. […] The survival of the treated animals was recorded at 24 h intervals during a seven day period of observation and compared with the control groups. […] The survival of the animals was recorded at 12 or 24 h intervals during a 7 day period of observation and compared with the control groups. […]

No end group written: not given here.

These results are taken from patent US6624140B1, “Synthetic peptides with antimicrobial and endotoxin neutralizing properties for management of the sepsis syndrome” (Academisch Ziekenhuis Bij de Universiteit van Amsterdam …, priority 1997, dated 2003).

Consider “GKWKLFKKAFKKFLKILAC-OH [BP2, Gly-Lys-Trp-Lys-Leu-Phe-Lys-Lys-Ala-Phe-Lys-Lys-Phe-Leu-Lys-Ile-Leu-Ala-Cys]”, for which the survival in assay [1] is listed as 75%; in assay [2], 78.5%.
